Experimental data taken from the supplement of paper PMC11061612.

Tests used:
Test in all cases: Bliss excess, mean over the matrix (fraction); higher = more synergy
[1] = system: BE-13 (T-Lymphoblastic Leukemia)
In short: (§1)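 Bliss excess equals the observed combination effect minus the expected value EA + EB − EA·EB, where EA and EB are the effects of each agent alone. Combination Emax is the second-highest inhibition within the matrix. Inhibition was scaled from CellTiter-Glo 2.0 luminescence, with 0 set by vehicle wells and 1 by blank wells, after 72 hours of two-drug dosing of cells plated in 1536-well plates.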

[2] = system: BE2-M17 (Neuroblastoma)
In short: as §1

[3] = system: CAL-33 (Oral Cavity Carcinoma)
In short: as §1

[4] = system: CAL-72 (Osteosarcoma)
In short: as §1

[5] = system: EW-11 (Ewing's Sarcoma)
In short: as §1

[6] = system: GAMG (Glioblastoma)
In short: as §1

[7] = system: HeLa (Cervical Carcinoma)
In short: as §1

[8] = system: HuH-7 (Hepatocellular Carcinoma)
In short: as §1

[9] = system: KS-1 (Glioblastoma)
In short: as §1

[10] = system: L-428 (Hodgkin's Lymphoma)
In short: as §1

[11] = system: LS-123 (Colorectal Carcinoma)
In short: as §1

[12] = system: MHH-CALL-2 (B-Lymphoblastic Leukemia)
In short: as §1

[13] = system: NCI-H1568 (Lung Adenocarcinoma)
In short: as §1

[14] = system: NCI-H209 (Small Cell Lung Carcinoma)
In short: as §1

[15] = system: NCI-H2722 (Mesothelioma)
In short: as §1

[16] = system: NCI-H524 (Small Cell Lung Carcinoma)
In short: as §1

[17] = system: OE21 (Esophageal Squamous Cell Carcinoma)
In short: as §1

[18] = system: SNU-16 (Gastric Carcinoma)
In short: as §1

[19] = system: SNU-449 (Hepatocellular Carcinoma)
In short: as §1

[20] = system: TGBC1TKB (Biliary Tract Carcinoma)
In short: as §1

Row | SMILES | Bliss excess [1] | Bliss excess [2] | Bliss excess [3] | Bliss excess [4] | Bliss excess [5] | Bliss excess [6] | Bliss excess [7] | Bliss excess [8] | Bliss excess [9] | Bliss excess [10] | Bliss excess [11] | Bliss excess [12] | Bliss excess [13] | Bliss excess [14] | Bliss excess [15] | Bliss excess [16] | Bliss excess [17] | Bliss excess [18] | Bliss excess [19] | Bliss excess [20]
1 | CC1(C)CCC(CN2CCN(c3ccc(C(=O)NS(=O)(=O)c4ccc(NCC5CCOCC5)c([N+](=O)[O-])c4)c(Oc4cnc5[nH]ccc5c4)c3)CC2)=C(c2ccc(Cl)cc2)C1 [Venetoclax] + CCN(CCO)CCCOc1ccc2c(Nc3cc(CC(=O)Nc4cccc(F)c4)[nH]n3)ncnc2c1 [AZD2811] (first compound max 1 µM, 7x7, partner max 1 µM) | -0.0468 | 0.107 | -0.0261 | -0.0984 | -0.0186 | -0.0368 | 0.0336 | -0.0133 | -0.0516 | 0.0178 | -0.0437 | -0.01 | -0.0339 | 0.356 | -0.0269 | -0.0074 | 0.0005 | 0.0202 | -0.0642 | -0.0225
2 | CC1(C)CCC(CN2CCN(c3ccc(C(=O)NS(=O)(=O)c4ccc(NCC5CCOCC5)c([N+](=O)[O-])c4)c(Oc4cnc5[nH]ccc5c4)c3)CC2)=C(c2ccc(Cl)cc2)C1 [Venetoclax] + C[C@@H](Nc1cc(F)cc(F)c1)c1cc(C(=O)N(C)C)cc2c(=O)cc(N3CCOCC3)oc12 [AZD8186] (first compound max 1 µM, 7x7, partner max 3 µM) | -0.0369 | -0.0069 | -0.0241 | -0.0042 | -0.0227 | -0.0453 | -0.0326 | -0.0304 | 0.0007 | 0.0037 | 0.0135 | 0.0163 | -0.0408 | 0.1 | -0.0546 | -0.009 | -0.0166 | 0.009 | -0.0583 | -0.0558
3 | NC1(C(=O)N[C@@H](CCO)c2ccc(Cl)cc2)CCN(c2ncnc3[nH]ccc23)CC1 [Capivasertib] + COc1nnc2ccc(N3CCC(c4ccc(OCCN5CCN(C)C(=O)[C@H]5C)cc4)CC3)nn12 [AZD5153] (first compound max 10 µM, 7x7, partner max 1 µM) | -0.0281 | 0.0666 | 0.051 | 0.005 | 0.115 | 0.039 | -0.0021 | -0.0061 | -0.0211 | -0.0239 | 0.0517 | -0.03 | -0.0032 | -0.0007 | 0.0016 | -0.0155 | 0.0333 | 0.0344 | 0.0058 | 0.02
4 | Cc1c2c(nn1C)CSCc1cc(n(C)n1)CSc1cc(c3ccccc3c1)OCCCc1c(C(=O)O)n(C)c3c-2c(Cl)ccc13 [AZD5991] + C[C@@H]1COCCN1C2=NC(=NC(=C2)C3(CC3)[S@](=N)(=O)C)C4=C5C=CNC5=NC=C4 [AZD6738] (first compound max 1 µM, 7x7, partner max 10 µM) | 0.0135 | 0.0574 | 0.0008 | 0.0213 | 0.0217 | 0.0116 | 0.0217 | -0.0057 | 0.0147 | 0.023 | -0.0046 | 0.0225 | 0.0409 | 0.138 | 0.0224 | -0.0395 | 0.0157 | 0.0167 | 0.0175 | 0.0537
5 | Cn1cnc2c(F)c(Nc3ccc(Br)cc3Cl)c(C(=O)NOCCO)cc21 [Selumetinib] + CCN(CCO)CCCOc1ccc2c(Nc3cc(CC(=O)Nc4cccc(F)c4)[nH]n3)ncnc2c1 [AZD2811] (first compound max 10 µM, 7x7, partner max 1 µM) | -0.0213 | -0.0073 | -0.0215 | -0.0369 | -0.0705 | -0.0213 | -0.0561 | -0.0164 | -0.0324 | 0.0174 | 0.0199 | 0.306 | -0.0612 | 0.0805 | -0.0834 | -0.0101 | 0.0238 | -0.0501 | -0.0582 | 0
6 | NC1(C(=O)N[C@@H](CCO)c2ccc(Cl)cc2)CCN(c2ncnc3[nH]ccc23)CC1 [Capivasertib] + CC(=O)c1c(C)c2cnc(Nc3ccc(N4CCNCC4)cn3)nc2n(C2CCCC2)c1=O [Palbociclib] (first compound max 10 µM, 7x7, partner max 10 µM) | -0.0485 | 0.0059 | 0.0918 | 0.0236 | 0.0121 | 0.0237 | -0.0661 | 0.0124 | -0.0656 | -0.0092 | -0.0026 | -0.0739 | -0.124 | -0.0433 | -0.0436 | 0.0047 | 0.0379 | 0.0129 | 0.001 | 0.0157
7 | CC(=O)c1c(C)c2cnc(Nc3ccc(N4CCNCC4)cn3)nc2n(C2CCCC2)c1=O [Palbociclib] + Cc1c2c(nn1C)CSCc1cc(n(C)n1)CSc1cc(c3ccccc3c1)OCCCc1c(C(=O)O)n(C)c3c-2c(Cl)ccc13 [AZD5991] (first compound max 10 µM, 7x7, partner max 1 µM) | -0.0277 | 0.0096 | 0.016 | -0.0073 | 0.0284 | -0.0142 | -0.0225 | -0.011 | -0.0556 | -0.0554 | -0.0376 | -0.0451 | -0.0149 | -0.0107 | -0.0649 | 0.0019 | -0.0088 | -0.0089 | -0.0187 | -0.0082
8 | Cc1c2c(nn1C)CSCc1cc(n(C)n1)CSc1cc(c3ccccc3c1)OCCCc1c(C(=O)O)n(C)c3c-2c(Cl)ccc13 [AZD5991] + CN(C)CCCOc1ccc(-c2ccc3ncc4c(c3c2)n(C2CCOCC2)c(=O)n4C)cn1 [AZD0156] (first compound max 1 µM, 7x7, partner max 1 µM) | -0.0285 | 0.0023 | 0.0215 | 0.0298 | -0.0946 | 0.0339 | -0.0266 | 0.0316 | -0.0619 | 0.0294 | -0.01 | 0.0053 | -0.0091 | 0.008 | -0.0302 | 0.0301 | 0.0133 | 0.0313 | -0.0243 | -0.0332
9 | COc1cccc(OCCCN)c1-c1cc(Nc2cnc(C#N)cn2)n[nH]1 [Prexasertib] + CCc1c2c(nc3ccc(O)cc13)-c1cc3c(c(=O)n1C2)COC(=O)[C@]3(O)CC [SN-38] (first compound max 1 µM, 7x7, partner max 0.3 µM) | 0.0072 | 0.0576 | -0.0329 | -0.0158 | -0.153 | 0.0292 | 0.0837 | 0.122 | -0.0848 | -0.0235 | 0.0186 | 0.0227 | 0.0165 | 0.0053 | -0.0565 | 0.0554 | -0.0509 | 0.0333 | -0.0091 | 0.0365
10 | COc1nnc2ccc(N3CCC(c4ccc(OCCN5CCN(C)C(=O)[C@H]5C)cc4)CC3)nn12 [AZD5153] + Cn1cnc2c(F)c(Nc3ccc(Br)cc3Cl)c(C(=O)NOCCO)cc21 [Selumetinib] (first compound max 1 µM, 7x7, partner max 10 µM) | -0.0209 | 0.0139 | 0.0584 | -0.0414 | -0.0633 | -0.0192 | -0.0409 | 0.006 | 0.0982 | -0.0409 | 0.0261 | -0.0438 | -0.0099 | -0.0214 | -0.0597 | -0.0216 | 0.0032 | -0.0058 | -0.014 | 0.0517
11 | COc1nnc2ccc(N3CCC(c4ccc(OCCN5CCN(C)C(=O)[C@H]5C)cc4)CC3)nn12 [AZD5153] + C[C@@H]1COCCN1C2=NC(=NC(=C2)C3(CC3)[S@](=N)(=O)C)C4=C5C=CNC5=NC=C4 [AZD6738] (first compound max 1 µM, 7x7, partner max 10 µM) | -0.0227 | 0.0293 | -0.031 | -0.0087 | 0.0006 | 0.04 | -0.0406 | 0.113 | -0.0349 | 0.009 | 0.0091 | -0.0397 | -0.0822 | 0.019 | 0.0378 | 0.0142 | -0.0266 | -0.0408 | -0.0048 | 0.0016
12 | NC1(C(=O)N[C@@H](CCO)c2ccc(Cl)cc2)CCN(c2ncnc3[nH]ccc23)CC1 [Capivasertib] + Cn1cnc2c(F)c(Nc3ccc(Br)cc3Cl)c(C(=O)NOCCO)cc21 [Selumetinib] (first compound max 10 µM, 7x7, partner max 10 µM) | 0.0265 | 0.0158 | 0.0926 | 0.0427 | 0.021 | 0.0408 | 0.0032 | -0.0428 | 0.0426 | -0.0127 | 0.0583 | 0.156 | -0.055 | -0.0108 | 0.0009 | 0.0158 | 0.0761 | 0.0151 | -0.0113 | 0.0729
13 | COc1nnc2ccc(N3CCC(c4ccc(OCCN5CCN(C)C(=O)[C@H]5C)cc4)CC3)nn12 [AZD5153] + C=CCn1c(=O)c2cnc(Nc3ccc(N4CCN(C)CC4)cc3)nc2n1-c1cccc(C(C)(C)O)n1 [AZD1775] (first compound max 1 µM, partner max 1 µM) | -0.0879 | 0.0026 | -0.0757 | -0.0524 | -0.0976 | -0.0516 | -0.072 | 0.0129 | -0.0308 | -0.0411 | -0.0445 | -0.0843 | -0.102 | 0.0223 | 0.0139 | -0.0337 | -0.0497 | -0.0385 | -0.0033 | 0.015
14 | Cc1c2c(nn1C)CSCc1cc(n(C)n1)CSc1cc(c3ccccc3c1)OCCCc1c(C(=O)O)n(C)c3c-2c(Cl)ccc13 [AZD5991] + C[C@@H](Nc1cc(F)cc(F)c1)c1cc(C(=O)N(C)C)cc2c(=O)cc(N3CCOCC3)oc12 [AZD8186] (first compound max 1 µM, 7x7, partner max 3 µM) | -0.109 | -0.0355 | -0.0099 | -0.0149 | -0.0009 | -0.0458 | 0.0387 | -0.007 | -0.0129 | -0.0085 | -0.0006 | -0.0188 | 0.0126 | -0.0154 | -0.0434 | -0.0289 | 0.0258 | 0.0087 | -0.078 | -0.0236
